Reference: patent publication US10851064B2, “ACSS2 inhibitors and methods of use thereof” (METABOMED LTD., priority 2017, dated 2020)

Target: ACSS2 (Homo sapiens, UniProt Q9NR19)
Assay: biochemical
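Further: Cell-free human ACSS2 enzyme reaction with acetate, CoA and ATP, 90 min at 37 C, coupled to pyrophosphatase, phosphate release detected by Biomol Green absorbance at 620 nm.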

ACSS2, sequence (Q9NR19 whole entry): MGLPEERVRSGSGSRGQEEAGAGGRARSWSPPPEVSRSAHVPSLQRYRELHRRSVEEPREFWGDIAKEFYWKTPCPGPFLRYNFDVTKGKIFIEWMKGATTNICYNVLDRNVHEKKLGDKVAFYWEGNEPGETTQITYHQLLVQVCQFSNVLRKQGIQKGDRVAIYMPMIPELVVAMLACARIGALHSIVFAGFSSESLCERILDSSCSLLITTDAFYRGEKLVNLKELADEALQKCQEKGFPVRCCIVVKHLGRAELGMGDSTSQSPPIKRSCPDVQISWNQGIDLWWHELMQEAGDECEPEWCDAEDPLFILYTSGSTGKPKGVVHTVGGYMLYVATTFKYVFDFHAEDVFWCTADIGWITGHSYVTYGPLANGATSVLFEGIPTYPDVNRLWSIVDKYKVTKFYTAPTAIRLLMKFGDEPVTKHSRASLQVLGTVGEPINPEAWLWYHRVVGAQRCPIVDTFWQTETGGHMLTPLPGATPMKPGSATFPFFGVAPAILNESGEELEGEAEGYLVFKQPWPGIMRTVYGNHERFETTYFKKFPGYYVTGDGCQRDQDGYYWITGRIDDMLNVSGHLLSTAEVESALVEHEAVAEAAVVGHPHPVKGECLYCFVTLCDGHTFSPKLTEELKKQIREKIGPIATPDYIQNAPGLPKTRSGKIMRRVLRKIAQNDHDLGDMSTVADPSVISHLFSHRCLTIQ

SMILES	IC50 [nM]
CC1=NN(c2cccc(C(=O)OC(C)C)c2)C(=O)C1C(=O)Nc1cccc(-c2ncco2)c1 (stereo not shown) [compound 238]	6 to 100
CC1=NN(c2ccncc2)C(=O)C1C(=O)Nc1cccc(-c2ccco2)c1 (stereo not shown) [compound 240]	6 to 100
COc1ccc(N2N=C(C)C(C(=O)Nc3cccc(-c4ncco4)c3)C2=O)cn1 (stereo not shown) [compound 245]	6 to 100
CC1=NN(c2ccc(S(=O)(=O)N(C)C)cc2)C(=O)C1C(=O)Nc1cccc(-c2ncco2)c1 (stereo not shown) [compound 254]	100 to 1000
CCc1ccc(NC(=O)C2C(=O)N(c3ccccc3)N=C2C)s1 (stereo not shown) [compound 260]	100 to 1000
CC1=NN(c2ccccc2)C(=O)C1C(=O)Nc1nccn1C (stereo not shown) [compound 268]	1000 to 100000
CC1=NN(c2cccc(S(=O)(=O)N(C)C)c2)C(=O)C1C(=O)Nc1cccc(-c2cnccn2)c1 (stereo not shown) [compound 272]	6 to 100
CC1=NN(c2cccc(S(=O)(=O)N(C)C)c2)C(=O)C1C(=O)Nc1cccc(-c2ncc[nH]2)c1 (stereo not shown) [compound 277]	6 to 100
CC1=NN(c2ccccc2)C(=O)C1C(=O)Nc1cscc1C (stereo not shown) [compound 283]	100 to 1000
CCc1cc(NC(=O)C2C(=O)N(c3ccccc3)N=C2C)cs1 (stereo not shown) [compound 284]	100 to 1000
CCc1csc(NC(=O)C2C(=O)N(c3ccccc3)N=C2C)c1 (stereo not shown) [compound 285]	100 to 1000
CCc1ccsc1NC(=O)C1C(=O)N(c2ccccc2)N=C1C (stereo not shown) [compound 288]	100 to 1000
CCc1cscc1NC(=O)C1C(=O)N(c2ccccc2)N=C1C (stereo not shown) [compound 290]	100 to 1000
CC(=O)NS(=O)(=O)c1cccc(N2N=C(C)C(C(=O)Nc3cccc(C(C)(F)F)c3)C2=O)c1 (stereo not shown) [compound 293]	6 to 100
CC(=O)NS(=O)(=O)c1cc(N2N=C(C)C(C(=O)Nc3cccc(C(C)(F)F)c3)C2=O)ccc1OC(F)(F)F (stereo not shown) [compound 294]	6 to 100
CC(=O)NS(=O)(=O)c1cc(N2N=C(C)C(C(=O)Nc3cccc(-c4ccco4)c3)C2=O)ccc1OC(F)(F)F (stereo not shown) [compound 299]	6 to 100
COc1ccc(N2N=C(C)C(C(=O)Nc3cccc(C(C)(F)F)c3)C2=O)c(C)c1 (stereo not shown) [compound 302]	100 to 1000
CC1=NN(c2cc(Cc3ccccc3Cl)cc(-c3ccccc3)c2)C(=O)C1C(=O)Nc1cccc(C(C)(F)F)c1 (stereo not shown) [compound 333]	6 to 100
CC1=NN(c2cccc(CN)c2)C(=O)C1C(=O)Nc1cccc(C(C)(F)F)c1 (stereo not shown) [compound 335]	6 to 100
Cc1nn(-c2ccc(OC(F)F)cc2)cc1C(=O)Nc1cccc(C(C)(F)F)c1 [compound 338]	6 to 100
COc1ccc(N2N=C(C)C(C(=O)Nc3cccc(C(C)(F)F)c3)C2=O)cc1-c1cc[n+]([O-])cc1 (stereo not shown) [compound 345]	100 to 1000
COc1ccc(N2N=C(C)C(C(=O)Nc3cccc(C(C)(F)F)c3)C2=O)cc1-c1ncc(C)o1 (stereo not shown) [compound 352]	0.01 to 6

SMILES	IC50 [nM]
CC1=NN(c2cccc(C#CCN)c2)C(=O)C1C(=O)Nc1cccc(C(C)(F)F)c1 (stereo not shown) [compound 356]	6 to 100
CCCn1ccc2ccc(N3N=C(C)C(C(=O)Nc4cccc(C(F)(F)CC)c4)C3=O)cc21 (stereo not shown) [compound 359]	0.01 to 6
CC1=NN(c2ccc3ccn(-c4ccccc4)c3c2)C(=O)C1C(=O)Nc1cccc(C(C)(F)F)c1 (stereo not shown) [compound 361]	0.01 to 6
CC1=NN(c2cc(Cc3ccccc3OCc3ccccc3)cc(-c3cccnc3)c2)C(=O)C1C(=O)Nc1cccc(C(C)(F)F)c1 (stereo not shown) [compound 365]	6 to 100
CC1=NN(c2ccc3ccn(Cc4ccccc4)c3c2)C(=O)C1C(=O)Nc1cccc(C(C)(F)F)c1 (stereo not shown) [compound 367]	0.01 to 6
CCC(F)(F)c1cccc(NC(=O)C2C(=O)N(c3ccc(OC)c(-c4ccccc4)c3)N=C2C)c1 (stereo not shown) [compound 368]	0.01 to 6
CCC(F)(F)c1cccc(NC(=O)C2C(=O)N(c3ccc(OC(F)F)c(-c4nnc(C)[nH]4)c3)N=C2C)c1 (stereo not shown) [compound 370]	0.01 to 6
CC1=NN(c2cc(-c3ccccc3)cc(-c3ccsc3)c2)C(=O)C1C(=O)Nc1cccc(C(C)(F)F)c1 (stereo not shown) [compound 372]	0.01 to 6
CC1=NN(c2cc(Cc3ccc(OCc4ccccc4)cc3)cc(-c3cccnc3)c2)C(=O)C1C(=O)Nc1cccc(C(C)(F)F)c1 (stereo not shown) [compound 373]	100 to 1000
CC1=NN(c2ccc(Cc3ccccc3)c(-c3cccnc3)c2)C(=O)C1C(=O)Nc1cccc(C(C)(F)F)c1 (stereo not shown) [compound 374]	0.01 to 6
CC1=NN(c2ccc(Cc3ccccc3)c(-c3ccccc3)c2)C(=O)C1C(=O)Nc1cccc(C(C)(F)F)c1 (stereo not shown) [compound 375]	0.01 to 6
CC1=NN(c2cc(Cc3ccc(Cl)cc3)cc(-c3ccccc3)c2)C(=O)C1C(=O)Nc1cccc(C(C)(F)F)c1 (stereo not shown) [compound 376]	6 to 100
CC1=NN(c2cccc(C#CCNC(=O)COCCOCCOCCOCCOCC(=O)Nc3cccc4c3C(=O)N(C3CCC(=O)NC3=O)C4=O)c2)C(=O)C1C(=O)Nc1cccc(C(C)(F)F)c1 (stereo not shown) [compound 378]	0.01 to 6
CC1=NN(c2cccc(C#CCNC(=O)COCCOCCOCCOCC(=O)Nc3ccc4c(c3)C(=O)N(C3CCC(=O)NC3=O)C4=O)c2)C(=O)C1C(=O)Nc1cccc(C(C)(F)F)c1 (stereo not shown) [compound 379]	0.01 to 6
CC1=NN(c2cccc(C#CCNC(=O)COCCOCCOCC(=O)Nc3cccc4c3C(=O)N(C3CCC(=O)NC3=O)C4=O)c2)C(=O)C1C(=O)Nc1cccc(C(C)(F)F)c1 (stereo not shown) [compound 380]	0.01 to 6
CC1=NN(c2cccc(C#CCNC(=O)COCCOCC(=O)Nc3cccc4c3C(=O)N(C3CCC(=O)NC3=O)C4=O)c2)C(=O)C1C(=O)Nc1cccc(C(C)(F)F)c1 (stereo not shown) [compound 381]	0.01 to 6
CC1=NN(c2cccc(C#CCNC(=O)CCCC(=O)Nc3ccc4c(c3)C(=O)N(C3CCC(=O)NC3=O)C4=O)c2)C(=O)C1C(=O)Nc1cccc(C(C)(F)F)c1 (stereo not shown) [compound 382]	0.01 to 6
CC1=NN(c2cc(Cc3ccc(Cl)cc3)cc(-c3cccnc3)c2)C(=O)C1C(=O)Nc1cccc(C(C)(F)F)c1 (stereo not shown) [compound 384]	6 to 100
COc1ccc(N2N=C(C)C(C(=O)Nc3cccc(C(C)(F)F)c3)C2=O)cc1-c1nnc(C)[nH]1 (stereo not shown) [compound 385]	6 to 100
CC1=NN(c2cc(Cc3ccccc3)cc(-c3ccccc3)c2)C(=O)C1C(=O)Nc1cccc(C(C)(F)F)c1 (stereo not shown) [compound 387]	0.01 to 6
CC1=NN(c2cc(Br)cc(Cc3ccc(Cl)cc3)c2)C(=O)C1C(=O)Nc1cccc(C(C)(F)F)c1 (stereo not shown) [compound 388]	0.01 to 6

The remaining lines, values ahead:

IC50 [nM]	SMILES
100 to 1000	CC1=NN(c2ccncc2)C(=O)C1C(=O)Nc1cccc(-c2ncc[nH]2)c1 (stereo not shown) [compound 233]
1000 to 100000	CC1=NN(c2ccccc2)C(=O)C1C(=O)Nc1cccc(-c2ccon2)c1 (stereo not shown) [compound 239]
6 to 100	COc1ccc(N2N=C(C)C(C(=O)Nc3cccc(-c4ncco4)c3)C2=O)cc1 (stereo not shown) [compound 256]
6 to 100	CC1=NN(c2ccc(S(=O)(=O)N(C)C)cc2)C(=O)C1C(=O)Nc1cccc(-c2cnccn2)c1 (stereo not shown) [compound 262]
6 to 100	CCc1cccc(NC(=O)C2C(=O)N(c3ccc4cccnc4c3)N=C2C)c1 (stereo not shown) [compound 267]
100 to 1000	CC1=NN(c2ccc(C(F)(F)F)cc2)C(=O)C1C(=O)Nc1cccc(-c2ncco2)c1 (stereo not shown) [compound 270]
1000 to 100000	CC1=NN(c2ccccc2)C(=O)C1C(=O)Nc1ccc2[nH]cnc2c1 (stereo not shown) [compound 278]
0.01 to 6	COc1ccc(N2N=C(C)C(C(=O)Nc3cccc(C(C)(F)F)c3)C2=O)cc1O (stereo not shown) [compound 281]
6 to 100	CC1=NN(c2ccc(OC(F)(F)F)cc2)C(=O)C1C(=O)Nc1csc(C(C)(F)F)c1 (stereo not shown) [compound 295]
6 to 100	CC1=NN(c2ccc(OC(F)(F)F)cc2)C(=O)C1C(=O)Nc1cc(C(C)(F)F)cs1 (stereo not shown) [compound 296]
100 to 1000	CC1=NN(c2ccc(OC(F)F)cc2)C(=O)C1C(=O)Nc1cccc(C2COC2)c1 (stereo not shown) [compound 329]
6 to 100	CC1=NN(c2ccc(OC(F)F)cc2)C(=O)C1C(=O)Nc1cccc(C(C)(O)c2ccccc2)c1 (stereo not shown) [compound 337]
100 to 1000	CC1=NN(c2ccc(OC(F)F)cc2)C(=O)C1NC(=O)c1cccc(C(C)(F)F)c1 (stereo not shown) [compound 341]
100 to 1000	CC1=NN(c2ccc(OC(F)F)cc2)C(=O)C1C(=O)Nc1cccc2cc[nH]c12 (stereo not shown) [compound 346]
100 to 1000	CC1=NN(c2ccc(OC(F)F)cc2)C(=O)C1C(=O)Nc1ccc2[nH]ccc2c1 (stereo not shown) [compound 347]
6 to 100	CC1=NN(c2ccc(C3COC3)cc2)C(=O)C1C(=O)Nc1cccc(C(C)(F)F)c1 (stereo not shown) [compound 348]
100 to 1000	CC1=NN(c2ccc(OC(F)F)cc2)C(=O)C1C(=O)Nc1ccc2cc[nH]c2c1 (stereo not shown) [compound 349]
100 to 1000	CC1=NN(c2ccc(OC(F)F)cc2)C(=O)C1C(=O)Nc1cccc2[nH]ccc12 (stereo not shown) [compound 350]
6 to 100	COc1ccc(N2N=C(C)C(C(=O)Nc3cccc(C4COC4)c3)C2=O)cc1 (stereo not shown) [compound 354]
0.01 to 6	CC1=NN(c2ccc(OC(F)F)c(-c3ncco3)c2)C(=O)C1C(=O)Nc1cccc(C(C)(F)F)c1 (stereo not shown) [compound 355]
100 to 1000	COc1ccc(N2N=C(C)C(C(=O)NCc3ccccc3)C2=O)cc1 (stereo not shown) [compound 358]
0.01 to 6	CCC(F)(F)c1cccc(NC(=O)C2C(=O)N(c3ccc4ccn(C(C)C)c4c3)N=C2C)c1 (stereo not shown) [compound 360]
6 to 100	CC1=NN(c2ccc(OC(F)F)cc2)C(=O)C1C(=O)Nc1cccc(C(F)(F)C(C)C)c1 (stereo not shown) [compound 362]
0.01 to 6	CCCn1ccc2ccc(N3N=C(C)C(C(=O)Nc4cccc(C(C)(F)F)c4)C3=O)cc21 (stereo not shown) [compound 363]
0.01 to 6	CC1=NN(c2ccc3ccn(C(C)C)c3c2)C(=O)C1C(=O)Nc1cccc(C(C)(F)F)c1 (stereo not shown) [compound 364]
0.01 to 6	CC1=NN(c2ccc3ccn(C)c3c2)C(=O)C1C(=O)Nc1cccc(C(C)(F)F)c1 (stereo not shown) [compound 366]
0.01 to 6	CCC(F)(F)c1cccc(NC(=O)C2C(=O)N(c3ccc4cc[nH]c4c3)N=C2C)c1 (stereo not shown) [compound 369]
0.01 to 6	CC1=NN(c2ccc(OC(F)F)c(-c3nnc(C)[nH]3)c2)C(=O)C1C(=O)Nc1cccc(C(C)(F)F)c1 (stereo not shown) [compound 371]
0.01 to 6	CCC(F)(F)c1cccc(NC(=O)C2C(=O)N(c3ccc(OC(F)F)c(-c4ccccn4)c3)N=C2C)c1 (stereo not shown) [compound 377]
0.01 to 6	CCC(F)(F)c1cccc(NC(=O)C2C(=O)N(c3ccc(OC(F)F)cn3)N=C2C)c1 (stereo not shown) [compound 383]
